Data as given in patent US8148099B2, “Process for determining S-nitrosothiols in biological fluids” (Universita' Di Pisa, priority 2006, dated 2012).

Columns and labels:
[1] = biological target: T1, γ-glutamyltranspeptidase (GGT) (Homo sapiens, UniProt P19440); assay: Decomposition kinetics of GSNO, absorbance at 334 nm (FIG. 1); assay type: biochemical
Protocol: GSNO has a absorption band at 334 nm. […] In FIG. 1 in particular, the decomposition kinetics is shown of 50 uM GSNO with GGT 525 mU/mL added at the time t=0. In ordinates the absorbance at 334 nm is shown. […]
At the addition of GGT 525 mU/mL the decrease is observed of the absorbance at 334 nm that indicates the decomposition of GSNO (curve a of FIG. 1). GSNO is quantitatively decomposed, in the adopted operative conditions, in 450 sec.

[2] = biological target: T1, γ-glutamyltranspeptidase (GGT); details: read-out: Km constant (Michaelis-Menten kinetic constant) of GGT; substance as substrate of GGT; cited from earlier work
[3] = blood; cited from earlier work

T1 sequence (P19440 whole entry, species assumed): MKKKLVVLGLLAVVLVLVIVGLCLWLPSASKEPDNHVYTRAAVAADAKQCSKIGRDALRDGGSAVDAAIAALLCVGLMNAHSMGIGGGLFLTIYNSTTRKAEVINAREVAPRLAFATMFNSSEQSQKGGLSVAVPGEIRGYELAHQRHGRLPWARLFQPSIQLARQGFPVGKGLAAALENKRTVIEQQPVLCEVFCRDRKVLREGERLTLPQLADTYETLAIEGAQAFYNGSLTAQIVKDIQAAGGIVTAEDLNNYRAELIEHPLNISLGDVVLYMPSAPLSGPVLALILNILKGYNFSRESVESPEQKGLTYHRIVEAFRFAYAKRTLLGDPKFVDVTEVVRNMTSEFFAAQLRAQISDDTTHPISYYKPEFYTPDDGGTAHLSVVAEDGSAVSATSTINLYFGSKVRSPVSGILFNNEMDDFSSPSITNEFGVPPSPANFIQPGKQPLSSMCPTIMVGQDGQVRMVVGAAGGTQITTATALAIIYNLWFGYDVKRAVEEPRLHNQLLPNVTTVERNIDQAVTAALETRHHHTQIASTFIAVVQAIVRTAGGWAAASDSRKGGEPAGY

| SMILES | time for quantitative decomposition of GSNO ([1]; 50 uM GSNO, GGT 525 mU/mL, phosphate buffer 0.1 M pH 8.0, GlyGly 4.5 mM, Cu(SO4) 100 uM (curve a)) [s] | change of absorbance at 334 nm ([1]; adding only 50 uM of CuSO4 (curve b)) | Km [2] [µM] | half life in the hematic area [3] |
| --- | --- | --- | --- | --- |
| N[C@@H](CCC(=O)N[C@@H](CSN=O)C(=O)NCC(=O)O)C(=O)O [GSNO, S-nitrosoglutathione] | 450 | no decrease is observed | 28 |  |
| [N]=O [NO, Nitric oxide] |  |  |  | about 2 ms |
| N[C@@H](CCC(=O)N[C@@H](CS)C(=O)NCC(=O)O)C(=O)O [GSH, reduced glutathione] |  |  | 5 to 10 |  |
